Tests used:
[1] = oral bioavailability when administered to animals; format: in vivo
Procedure: (§1) Since the physiological pH typically lies within this range, the rate of the drug's dissolution in and absorption from the gastrointestinal tract can be low, particularly when the drug is administered in a solid dosage form. The same or similar formulation difficulties can be expected for other 8-hydroxy-1,6-naphthyridine-7-carboxamides of this class and their salts having low solubility at physiological pH's.
Particle size can affect the oral bioavailability of the active drug substances employed in the pharmaceutical compositions of the invention. […] Accordingly, embodiments of the present invention include each of the pharmaceutical compositions defined and described above, wherein the active drug substance (i.e., Compound I or II or A or B or a pharmaceutically acceptable salt thereof) employed therein has a mean particle size of from about 1 to about 20 μm, or from about 1 to about 10 μm (e.g., from about 3 to about 6 μm wherein 90% of the particles are less than 10 μm).

HIV integrase = biological target: T1, HIV integrase (Human immunodeficiency virus type 1 group M subtype B, UniProt P04585); assay: integrase inhibition assay, strand transfer catalyzed by recombinant integrase; format: biochemical
T1 construct: strand transfer is catalyzed by recombinant integrase
Excerpt: Integrase inhibition activity can be determined, for example, using the assay described in Hazuda et al., J. Virol. 1997, 71: 7005-7011.

[2] = wettability and water solubility; format: physicochemical
Procedure: as §1

[3] = in vitro dispersion of Compound A in aqueous surfactant solutions; format: physicochemical; conditions: aqueous media at physiological pHs, in the absence of a nonionic surfactant or in the presence of SLS; Na salt milled to 3 μm
Excerpt: This PK data is consistent with the results of in vitro experiments characterizing the ability of these surfactants to disperse Compound A. In these experiments, Compound A Na salt (milled to a 3 μm mean particle size) was suspended in acidified aqueous solutions of the surfactant, and the surfactants were ranked for effectiveness in dispersing Compound A based on a visual evaluation of the suspension for turbidity and particle size. The visual evaluations were confirmed by measuring the particle size distributions in the suspensions using a laser scattering particle size distribution analyzer. The results of these tests have shown that Compound A drug particles flocculate in aqueous media at physiological pHs in the absence of a nonionic surfactant or in the presence of SLS.

HIV replication = assay: inhibition of acute HIV infection of T-lymphoid cells; format: cell-based
Excerpt: The active drug substances employed in the pharmaceutical compositions of the present invention (e.g., the 8-hydroxy-1,6-naphthyridine-7-carboxamide compounds of Formula (I) and (II) and Compounds A and B) are inhibitors of HIV integrase. […] Integrase inhibition activity can be determined, for example, using the assay described in Hazuda et al., J. Virol. 1997, 71: 7005-7011. […] Further description of representative compound embraced by Formula I, assays for measuring their integrase inhibition activity and HIV replication activity can be found in WO 02/30930.

[4] = animals, aqueous suspensions containing 0.5 wt. % methocel and 0.02 wt. % sodium lauryl sulfate

SMILES | oral bioavailability [1, 4] | oral bioavailability ([1]; animals, wet granulated compressed tablets with lactose, hydroxypropylcellulose, Na croscarmellose, microcrystalline cellulose, Mg stearate (no surfactant)) | oral bioavailability ([1]; capsules containing bulk Compound A sodium salt, versus the suspension) | HIV integrase inhibition in the strand transfer assay (HIV integrase) | wettability [2] | water solubility ([2]; pH's between about 2 and about 8) | dispersion of drug particles (turbidity, particle size) [3] | inhibition of HIV replication (HIV replication)
O=C(NCc1ccc(F)cc1)c1nc(N2CCCCS2(=O)=O)c2cccnc2c1[O-].[Na+] [Compound A sodium salt, 5-(N-1,4-butanesultam)-N-(4-fluorobenzyl)-8-hydroxy-1,6-naphthyridine-7-carboxamide sodium salt] | satisfactory oral bioavailability | poor oral bioavailability | substantially lower oral bioavailability | – | – | – | – | –
O=C(NCc1ccc(F)cc1)c1nc(N2CCCCS2(=O)=O)c2cccnc2c1O [Compound A, 5-(1,1-dioxido-1,2-thiazinan-2-yl)-N-(4-fluorobenzyl)-8-hydroxy-1,6-naphthyridine-7-carboxamide] | satisfactory oral bioavailability | – | – | potent HIV integrase inhibitors | poor wettability | low water solubility | flocculate | very effective
CNC(=O)c1cc(F)ccc1CNC(=O)c1nc(N2CCCCS2(=O)=O)c2cccnc2c1O [Compound B, N-{4-fluoro-2-[(methylamino)carbonyl]benzyl}-5-(1,1-dioxido-1,2-thiazinan-2-yl)-8-hydroxy-1,6-naphthyridine-7-carboxamide] | – | – | – | potent HIV integrase inhibitors | – | – | – | very effective

Source: US20050165000A1, “Pharmaceutical compositions containing an hiv integrase inhibitor and a nonionic surfactant” (priority 2002, published 2005)
